According to ChEMBL document CHEMBL1201862, “PubChem BioAssay data set” (2004):
Activity calls are given as the source filed them.

Tests used:
Bcl-2-like protein 10 = Bcl-2-like protein 10 (Homo sapiens, UniProt Q9HD36); assay: displacers of TR3 peptide from Bcl-B, primary screen, selectivity assay for Bfl-1 inhibitor project, biochemical, fluorescence polarization, FITC-TR3 peptide (AID 748);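 also: fluorescence polarization from a fluorescein-labelled TR3 peptide binding purified Bcl-B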
[1] = target: T1, DNA repair and recombination protein RAD54-like (Homo sapiens, UniProt Q92698); assay: inhibitors of human RAD54 branch migration, confirmation, biochemical, fluorescence, cherry-picked samples, dose series (AID 651657); assay type: functional
T1 sequence (Q92698 whole entry): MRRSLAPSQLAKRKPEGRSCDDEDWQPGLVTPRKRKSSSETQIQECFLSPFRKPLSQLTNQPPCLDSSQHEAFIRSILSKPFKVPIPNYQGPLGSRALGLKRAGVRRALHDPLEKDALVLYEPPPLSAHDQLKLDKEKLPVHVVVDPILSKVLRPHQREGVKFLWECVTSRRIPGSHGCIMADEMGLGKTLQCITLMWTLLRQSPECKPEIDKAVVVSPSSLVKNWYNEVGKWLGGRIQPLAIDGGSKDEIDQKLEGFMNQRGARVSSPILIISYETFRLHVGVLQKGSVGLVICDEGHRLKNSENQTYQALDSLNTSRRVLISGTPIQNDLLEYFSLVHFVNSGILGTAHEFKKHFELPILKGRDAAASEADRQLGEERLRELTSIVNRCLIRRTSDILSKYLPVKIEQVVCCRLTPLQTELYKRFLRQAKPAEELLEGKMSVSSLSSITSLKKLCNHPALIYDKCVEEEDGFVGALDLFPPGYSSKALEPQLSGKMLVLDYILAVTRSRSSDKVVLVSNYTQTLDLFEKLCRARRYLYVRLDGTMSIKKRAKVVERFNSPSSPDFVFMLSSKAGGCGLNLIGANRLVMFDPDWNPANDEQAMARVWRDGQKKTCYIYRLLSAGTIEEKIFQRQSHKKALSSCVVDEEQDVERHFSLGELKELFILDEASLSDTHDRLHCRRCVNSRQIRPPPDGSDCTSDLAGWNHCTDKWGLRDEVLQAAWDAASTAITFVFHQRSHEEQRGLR

MDA-MB-435 = assay: cells; assay type: functional, cell-based; conditions: Homo sapiens
cells = assay type: functional, cell-based; conditions: PPC-1
[2] = target: Glucose-6-phosphate 1-dehydrogenase (Homo sapiens, UniProt P11413); assay: human G6PD enzyme inhibitors, dose response, selectivity assay for P. falciparum G6PD inhibitor project, biochemical, fluorescence (AID 504792); assay type: functional
[3] = target: T2, Voltage-gated N-type calcium channel alpha-1B subunit/Amyloid beta A4 precursor protein-binding family A member 1 (Homo sapiens, UniProt Q00975+Q02410); assay type: protein assay
T2 sequence (Q00975 whole entry): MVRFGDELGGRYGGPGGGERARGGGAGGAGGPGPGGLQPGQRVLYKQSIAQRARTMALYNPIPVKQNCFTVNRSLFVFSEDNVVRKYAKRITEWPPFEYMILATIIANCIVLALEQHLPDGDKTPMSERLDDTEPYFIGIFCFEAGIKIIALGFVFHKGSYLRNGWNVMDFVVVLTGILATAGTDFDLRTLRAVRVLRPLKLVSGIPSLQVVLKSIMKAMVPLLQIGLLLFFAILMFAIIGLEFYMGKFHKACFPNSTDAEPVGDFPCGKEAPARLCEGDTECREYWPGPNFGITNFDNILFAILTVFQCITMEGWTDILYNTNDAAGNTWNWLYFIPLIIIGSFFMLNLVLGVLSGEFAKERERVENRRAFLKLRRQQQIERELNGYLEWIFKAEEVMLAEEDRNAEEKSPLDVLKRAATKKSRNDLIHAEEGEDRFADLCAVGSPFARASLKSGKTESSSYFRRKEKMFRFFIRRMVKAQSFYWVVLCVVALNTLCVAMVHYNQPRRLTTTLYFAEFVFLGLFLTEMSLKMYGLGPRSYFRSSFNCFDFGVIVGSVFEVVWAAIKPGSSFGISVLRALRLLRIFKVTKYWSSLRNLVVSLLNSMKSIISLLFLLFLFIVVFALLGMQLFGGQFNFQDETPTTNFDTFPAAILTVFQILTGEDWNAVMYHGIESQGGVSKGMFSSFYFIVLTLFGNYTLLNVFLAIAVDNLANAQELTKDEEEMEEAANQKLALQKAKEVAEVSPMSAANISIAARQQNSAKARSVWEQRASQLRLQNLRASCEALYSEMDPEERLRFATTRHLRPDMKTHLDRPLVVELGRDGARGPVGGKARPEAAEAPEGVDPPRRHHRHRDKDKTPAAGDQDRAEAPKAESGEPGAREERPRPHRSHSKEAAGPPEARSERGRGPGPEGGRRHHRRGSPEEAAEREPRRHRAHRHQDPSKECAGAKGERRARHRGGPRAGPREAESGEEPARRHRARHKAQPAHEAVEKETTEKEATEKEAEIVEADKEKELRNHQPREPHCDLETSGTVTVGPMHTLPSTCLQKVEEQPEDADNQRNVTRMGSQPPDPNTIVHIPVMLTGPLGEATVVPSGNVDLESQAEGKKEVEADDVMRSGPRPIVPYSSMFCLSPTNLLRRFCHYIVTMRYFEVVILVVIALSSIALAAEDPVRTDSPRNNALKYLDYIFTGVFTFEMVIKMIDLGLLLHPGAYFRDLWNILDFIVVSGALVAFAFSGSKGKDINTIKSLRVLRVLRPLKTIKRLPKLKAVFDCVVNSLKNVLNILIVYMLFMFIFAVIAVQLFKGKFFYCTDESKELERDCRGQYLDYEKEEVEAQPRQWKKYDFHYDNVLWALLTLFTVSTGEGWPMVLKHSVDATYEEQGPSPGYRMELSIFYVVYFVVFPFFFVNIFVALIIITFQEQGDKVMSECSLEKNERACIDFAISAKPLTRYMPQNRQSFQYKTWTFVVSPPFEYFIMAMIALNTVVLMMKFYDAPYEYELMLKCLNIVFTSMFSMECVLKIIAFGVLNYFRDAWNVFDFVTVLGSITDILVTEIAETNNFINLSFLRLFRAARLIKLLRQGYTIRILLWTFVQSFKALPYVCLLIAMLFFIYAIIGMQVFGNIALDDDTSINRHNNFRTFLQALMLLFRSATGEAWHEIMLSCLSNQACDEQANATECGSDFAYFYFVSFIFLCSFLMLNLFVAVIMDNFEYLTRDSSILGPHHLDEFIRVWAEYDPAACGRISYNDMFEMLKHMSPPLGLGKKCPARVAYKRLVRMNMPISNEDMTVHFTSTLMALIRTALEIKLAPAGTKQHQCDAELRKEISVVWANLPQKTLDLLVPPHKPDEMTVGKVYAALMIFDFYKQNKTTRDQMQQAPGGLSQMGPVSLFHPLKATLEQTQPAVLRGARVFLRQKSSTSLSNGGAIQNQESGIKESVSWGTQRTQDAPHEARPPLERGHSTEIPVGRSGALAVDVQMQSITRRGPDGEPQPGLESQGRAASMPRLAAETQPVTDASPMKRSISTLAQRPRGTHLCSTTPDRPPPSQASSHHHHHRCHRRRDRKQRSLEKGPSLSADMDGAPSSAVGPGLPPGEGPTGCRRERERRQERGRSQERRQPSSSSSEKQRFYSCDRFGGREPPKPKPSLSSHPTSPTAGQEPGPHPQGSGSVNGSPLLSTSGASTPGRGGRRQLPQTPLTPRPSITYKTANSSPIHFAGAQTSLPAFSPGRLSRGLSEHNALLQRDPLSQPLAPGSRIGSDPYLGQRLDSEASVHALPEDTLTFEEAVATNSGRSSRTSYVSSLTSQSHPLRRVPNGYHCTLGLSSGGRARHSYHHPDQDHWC
T2 sequence (Q02410 whole entry): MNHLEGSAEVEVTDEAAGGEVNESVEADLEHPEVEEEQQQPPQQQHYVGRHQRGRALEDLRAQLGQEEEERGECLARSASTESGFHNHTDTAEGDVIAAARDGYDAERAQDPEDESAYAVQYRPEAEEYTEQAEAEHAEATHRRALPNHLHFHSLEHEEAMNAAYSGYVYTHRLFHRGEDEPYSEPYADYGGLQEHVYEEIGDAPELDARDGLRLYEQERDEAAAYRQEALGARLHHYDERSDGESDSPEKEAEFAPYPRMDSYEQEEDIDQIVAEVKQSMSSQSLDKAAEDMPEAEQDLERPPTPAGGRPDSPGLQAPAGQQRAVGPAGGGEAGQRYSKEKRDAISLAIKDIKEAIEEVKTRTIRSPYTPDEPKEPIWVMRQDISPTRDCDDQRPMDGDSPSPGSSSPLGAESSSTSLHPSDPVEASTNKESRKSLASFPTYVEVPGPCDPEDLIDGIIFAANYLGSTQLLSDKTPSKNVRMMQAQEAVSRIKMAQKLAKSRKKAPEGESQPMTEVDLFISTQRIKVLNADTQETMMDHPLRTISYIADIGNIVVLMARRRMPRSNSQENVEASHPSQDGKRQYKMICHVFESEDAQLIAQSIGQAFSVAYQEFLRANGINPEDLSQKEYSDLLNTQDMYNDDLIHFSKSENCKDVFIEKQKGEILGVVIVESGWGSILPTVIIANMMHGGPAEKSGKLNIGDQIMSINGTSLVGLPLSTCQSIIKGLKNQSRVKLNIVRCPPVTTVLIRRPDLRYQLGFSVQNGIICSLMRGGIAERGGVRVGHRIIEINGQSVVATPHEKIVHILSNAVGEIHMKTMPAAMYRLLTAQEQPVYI

Beta Lactamase = Beta Lactamase (Pseudomonas aeruginosa, UniProt Q932Y6); assay: beta-lactamase reporter inhibitor potency, dose response, artefact control for NOD2-RIPK2 interaction inhibitor project, BLA reporter cells, FRET fluorescence (AID 651552); assay type: functional, cell-based
Beta Lactamase, sequence (Q932Y6 whole entry): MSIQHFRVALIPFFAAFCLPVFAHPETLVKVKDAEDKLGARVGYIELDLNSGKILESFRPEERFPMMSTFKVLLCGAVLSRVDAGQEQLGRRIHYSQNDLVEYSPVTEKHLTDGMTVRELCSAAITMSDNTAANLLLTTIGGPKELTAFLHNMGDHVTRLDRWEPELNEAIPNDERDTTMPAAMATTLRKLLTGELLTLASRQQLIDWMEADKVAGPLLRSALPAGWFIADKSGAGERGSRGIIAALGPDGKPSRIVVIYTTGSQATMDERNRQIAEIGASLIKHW

[4] = target: T2, Voltage-gated N-type calcium channel alpha-1B subunit/Amyloid beta A4 precursor protein-binding family A member 1; assay type: protein assay; remark: listed apart in the source
Large T antigen = Large T antigen (Simian virus 40, UniProt P03070); assay type: functional, Betapolyomavirus macacae;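 also: Confirmatory-stage PubChem screen for compounds that inhibit SV40 T antigen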
[5] = Fluorescence-based cell-based high throughput dose response assay for inhibitors of the interaction of nucleotide-binding oligomerization domain containing 2 (NOD2) and the receptor-interacting serine-threonine kinase 2 (RIPK2).; assay type: functional; conditions: Homo sapiens
[6] = target: T3, Rac GTPase-activating protein 1 (Homo sapiens, UniProt Q9H0H5); assay: MgcRacGAP GTPase-activating activity inhibitors, confirmation, biochemical, ADP Hunter fluorescence, primary and confirmatory (AID 624330); assay type: functional
T3 sequence (Q9H0H5 whole entry): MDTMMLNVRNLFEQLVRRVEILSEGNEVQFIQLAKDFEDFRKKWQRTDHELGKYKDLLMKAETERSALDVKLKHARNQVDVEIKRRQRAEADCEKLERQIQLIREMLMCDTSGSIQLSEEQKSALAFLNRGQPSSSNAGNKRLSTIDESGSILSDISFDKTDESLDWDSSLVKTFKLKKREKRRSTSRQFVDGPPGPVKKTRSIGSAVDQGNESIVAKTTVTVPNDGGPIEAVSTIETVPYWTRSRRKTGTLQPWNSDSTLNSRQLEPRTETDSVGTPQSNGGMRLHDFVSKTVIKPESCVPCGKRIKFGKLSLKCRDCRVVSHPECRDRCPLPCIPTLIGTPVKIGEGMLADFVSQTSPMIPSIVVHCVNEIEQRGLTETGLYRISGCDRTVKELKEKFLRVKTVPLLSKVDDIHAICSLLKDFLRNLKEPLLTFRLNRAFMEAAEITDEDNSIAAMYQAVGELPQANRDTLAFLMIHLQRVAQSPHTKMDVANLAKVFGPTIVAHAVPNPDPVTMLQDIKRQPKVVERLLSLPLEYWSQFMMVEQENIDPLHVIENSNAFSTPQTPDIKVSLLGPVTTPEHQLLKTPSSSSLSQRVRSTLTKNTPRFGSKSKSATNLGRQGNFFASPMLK

Protein Tat = target: T4, Protein Tat (Human immunodeficiency virus type 1 group M subtype B (isolate HXB2)(HIV-1), UniProt P04608); assay type: functional;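 also: tat binding to TAR RNA read out by fluorescence polarization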
T4 sequence (P04608 whole entry): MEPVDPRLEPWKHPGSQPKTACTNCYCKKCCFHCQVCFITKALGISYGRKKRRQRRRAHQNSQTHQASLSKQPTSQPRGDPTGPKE

Keap1/Nrf2 = Keap1/Nrf2 (Homo sapiens, UniProt Q14145); assay: Keap1-Nrf2 protein-protein interaction inhibitors, dose response, biochemical, fluorescence polarization, cherry-picked samples (AID 588683)
Keap1/Nrf2, sequence (Q16236 whole entry): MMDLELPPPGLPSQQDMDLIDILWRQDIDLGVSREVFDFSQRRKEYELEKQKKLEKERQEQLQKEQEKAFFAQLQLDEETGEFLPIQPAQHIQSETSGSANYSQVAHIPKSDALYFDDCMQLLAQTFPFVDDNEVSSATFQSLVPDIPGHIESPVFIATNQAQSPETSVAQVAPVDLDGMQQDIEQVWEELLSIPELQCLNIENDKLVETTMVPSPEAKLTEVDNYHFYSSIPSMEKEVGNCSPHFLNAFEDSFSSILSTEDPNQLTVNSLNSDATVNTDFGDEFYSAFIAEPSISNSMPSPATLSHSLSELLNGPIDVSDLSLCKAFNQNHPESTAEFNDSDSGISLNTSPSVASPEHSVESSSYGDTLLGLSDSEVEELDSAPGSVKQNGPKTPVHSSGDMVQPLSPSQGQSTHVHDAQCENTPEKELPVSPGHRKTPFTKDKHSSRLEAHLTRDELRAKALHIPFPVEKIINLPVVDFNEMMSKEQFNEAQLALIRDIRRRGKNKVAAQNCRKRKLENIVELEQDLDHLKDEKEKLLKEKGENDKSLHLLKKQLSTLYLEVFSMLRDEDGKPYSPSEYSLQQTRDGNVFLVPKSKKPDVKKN
Keap1/Nrf2, sequence (Q14145 whole entry): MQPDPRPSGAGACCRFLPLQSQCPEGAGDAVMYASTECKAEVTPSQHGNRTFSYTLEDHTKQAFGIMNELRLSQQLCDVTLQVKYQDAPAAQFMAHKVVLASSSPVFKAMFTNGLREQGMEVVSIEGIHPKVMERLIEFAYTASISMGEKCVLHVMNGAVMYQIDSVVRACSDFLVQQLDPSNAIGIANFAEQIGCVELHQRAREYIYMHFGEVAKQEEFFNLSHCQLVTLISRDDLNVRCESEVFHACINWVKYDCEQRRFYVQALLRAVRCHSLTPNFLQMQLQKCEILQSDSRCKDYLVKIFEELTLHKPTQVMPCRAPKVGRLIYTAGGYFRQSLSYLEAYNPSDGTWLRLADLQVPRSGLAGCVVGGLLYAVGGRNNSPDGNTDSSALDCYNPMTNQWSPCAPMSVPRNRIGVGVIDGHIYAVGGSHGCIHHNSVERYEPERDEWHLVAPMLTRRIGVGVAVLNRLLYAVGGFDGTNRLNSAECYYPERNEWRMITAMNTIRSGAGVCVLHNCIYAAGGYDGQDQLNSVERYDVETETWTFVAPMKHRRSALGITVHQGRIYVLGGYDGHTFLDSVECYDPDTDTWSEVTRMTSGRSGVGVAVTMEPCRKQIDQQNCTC

ORF 73 = ORF 73 (Human herpesvirus 8, UniProt O40947); assay: inhibitors of C-LANA binding to LBS DNA, dose response, biochemical, fluorescence polarization, cherry-picked samples (AID 504725); parameters: species or system Human gammaherpesvirus 8;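 also: fluorescence polarization of a labeled DNA duplex reporting LANA DNA binding; potency is for inhibitors that block LANA binding to the DNA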
[7] = target: Alkaline phosphatase, placental type (Homo sapiens, UniProt P05187); assay: PLAP enzyme inhibitors, confirmation, biochemical, luminescence (AID 1512); assay type: functional
[8] = target: Glyceraldehyde-3-phosphate dehydrogenase (Homo sapiens, UniProt P04406)
[9] = target: T5, Alkaline phosphatase, tissue-nonspecific isozyme (Homo sapiens, UniProt P05186); assay: human TNAP enzyme inhibitors, SAR follow-up, biochemical, luminescent, dose response (AID 1056)
T5 sequence (P05186 whole entry): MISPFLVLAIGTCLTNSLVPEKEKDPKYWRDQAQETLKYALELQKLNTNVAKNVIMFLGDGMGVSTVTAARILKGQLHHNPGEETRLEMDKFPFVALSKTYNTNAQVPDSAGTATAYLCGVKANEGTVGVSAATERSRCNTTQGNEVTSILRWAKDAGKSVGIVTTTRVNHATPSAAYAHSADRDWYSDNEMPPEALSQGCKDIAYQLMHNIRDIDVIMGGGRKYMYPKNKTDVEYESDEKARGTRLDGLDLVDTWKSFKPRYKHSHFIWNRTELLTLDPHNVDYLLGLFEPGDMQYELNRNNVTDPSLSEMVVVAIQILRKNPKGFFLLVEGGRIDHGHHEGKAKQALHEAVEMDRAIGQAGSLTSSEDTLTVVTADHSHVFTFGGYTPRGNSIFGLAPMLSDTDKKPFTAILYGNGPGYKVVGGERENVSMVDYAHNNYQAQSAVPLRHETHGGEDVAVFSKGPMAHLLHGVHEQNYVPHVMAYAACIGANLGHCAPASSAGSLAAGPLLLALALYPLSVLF

[10] = Luminescence Cell-Based Dose Retest to Confirm Inhibitors of Cancer Stem Cells. [Related pubchem assays (depositor defined):AID2717, AID2721]; assay type: functional; conditions: Homo sapiens
[11] = target: Neurotensin receptor type 1 (Homo sapiens, UniProt P30989); assay type: functional;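 also: Image-based confirmatory dose-response assay measuring agonist activity at NTR1; NTR1-expressing U2OS osteosarcoma cells imaged for beta-arrestin GFP spot formation; agonist potency where compounds increase beta-arrestin recruitment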
Beta-galactosidase = Beta-galactosidase (Escherichia coli, UniProt Q8VNN2); assay: beta-galactosidase enzyme inhibitors and activators, dose response, artefact control for CCR6 antagonist project, biochemical, E. coli enzyme, set 3 (AID 504712); assay type: functional
[12] = HepG2 cell cytotoxicity, dose response, cytotoxicity control for Shn3 inhibitor project, CellTiter-Glo, cherry-picked (AID 624134); assay type: functional, cell-based
[13] = non-specific cell cytotoxicity, dose response, cytotoxicity control for PAX8 inhibitor project, plate reader, dry powder samples (AID 743021); assay type: functional, cell-based
Paired box protein Pax-8 = Paired box protein Pax-8 (Homo sapiens, UniProt Q06710); assay: inhibitors of PAX8-driven TPO luciferase reporter, dose response, RMG-I cells, cherry-pick (AID 687027); assay type: functional, cell-based;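 also: luciferase reporter driven by Pax8 target thyroperoxidase promoter measured by SteadyGlo luminescence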
[14] = Shn3 3'UTR reporter inhibitors, dose response, cell-based, Clone20 osteoblasts, firefly luciferase, cherry-picked (AID 624132); assay type: functional;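 also: firefly luciferase luminescence from reporter carrying the Shn3 3'UTR in osteoblasts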
Mu-type opioid receptor = Mu-type opioid receptor (Homo sapiens, UniProt P35372); assay: SAR Analysis of Agonists of the MOR Receptor using an Image-Based Assay - Set 3. [Related pubchem assays (depositor defined):AID1777, AID1785, AID1786, AID1966, AID2133, AID2136, AID2284, AID2285, AID2352]; assay type: functional
[15] = target: Delta-type opioid receptor (Homo sapiens, UniProt P41143); assay: SAR Analysis of Agonists of the DOR Receptor using an Image-Based Assay - Set 3. [Related pubchem assays (depositor defined):AID1777, AID1786]; assay type: functional
[16] = target: T6, Kappa-type opioid receptor (Homo sapiens, UniProt P41145); assay: KOR agonist analogs, arrestin-GFP redistribution, SAR follow-up, imaging, image-based, set 3 (AID 488833); assay type: functional
T6 sequence (P41145 whole entry): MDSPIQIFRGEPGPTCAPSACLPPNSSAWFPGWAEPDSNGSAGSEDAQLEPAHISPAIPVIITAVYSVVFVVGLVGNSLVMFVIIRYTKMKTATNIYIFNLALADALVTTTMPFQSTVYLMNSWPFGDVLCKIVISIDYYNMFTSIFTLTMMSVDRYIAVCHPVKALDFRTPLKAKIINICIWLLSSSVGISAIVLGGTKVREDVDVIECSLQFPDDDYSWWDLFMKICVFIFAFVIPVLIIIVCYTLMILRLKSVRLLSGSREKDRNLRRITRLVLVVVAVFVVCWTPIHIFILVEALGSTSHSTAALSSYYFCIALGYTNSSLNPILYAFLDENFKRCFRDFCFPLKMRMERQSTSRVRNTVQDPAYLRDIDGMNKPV

[17] = target: T6, Kappa-type opioid receptor; assay: SAR analysis of small molecule agonists of the kappa opioid receptor via a luminescent beta-arrestin assay - Set 3. [Related pubchem assays (depositor defined):AID1777, AID1785, AID1786, AID1966, AID2133, AID2136, AID2284, AID2500]; assay type: functional
[18] = HeLa cell cytotoxicity, dose response, cytotoxicity control for MgcRacGAP inhibitor project (AID 624300); assay type: functional
[19] = target: Scavenger receptor class B member 1 (Mus musculus, UniProt Q61009); assay: inhibitors of SR-BI mediated HDL lipid uptake, dose response, ldlA[mSR-BI] cells, fluorescence, cherry pick (AID 493194); assay type: functional, cell-based;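 also: cellular uptake of fluorescent DiI-labeled HDL measured as cell fluorescence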
[20] = target: Signal transducer and activator of transcription 3 (Homo sapiens, UniProt P40763); assay: STAT3 activators, late-stage profile, late-stage follow-up, cell-based, STAT1 reporter, BCL3 qPCR, cytotoxicity, panel member STAT3 Activation (AID 2049)
[21] = target: Voltage-dependent T-type calcium channel subunit alpha-1H (Homo sapiens, UniProt O95180); assay: Cav3.2 T-type channel inhibitors, cell-based, synthetic library set 1, calcium flux (AID 493022); assay type: functional
Neutrophil collagenase = Neutrophil collagenase (Homo sapiens, UniProt P22894); assay: MMP13 inhibition and MMP selectivity, late-stage follow-up, selectivity assay for MMP13 inhibitor project, biochemical, probe development, late stage results, panel member MMP-8 [IC50 Assay] (AID 2067)

## CN(C)CCSc1nc(N)c2c3c(sc2n1)CN(C)CC3
Bcl-2-like protein 10
  IC50: 46.2 µM (active)
[1]
  AC50: 28.9 µM (active)

## COc1cc(-c2ccccc2)nc(S)n1
MDA-MB-435
  IC50: > 10 µM (inactive)
cells
  IC50: > 10 µM (inactive)

## N#C/C(C(=O)Nc1ccc(Cl)cc1)=C(/S)Nc1ccccc1
[2]
  IC50: 52 µM (inactive)
[3]
  IC50: 25.5 µM (active)
Beta Lactamase
  IC50: 49.8 µM (inactive)
[4]
  IC50: 13.9 µM (active)
Large T antigen
  IC50: 16.5 µM (active)
[5]
  IC50: 19.6 µM (inactive)

## Cc1nc2ccccc2n2c(O)c(CC(=O)O)cc12
[6]
  IC50: 35 µM (active)
Protein Tat
  IC50: 6.32 µM (inconclusive)
Keap1/Nrf2
  AC50: 12.3 µM (active)
ORF 73
  AC50: 10 µM (active)

## CC(C)(C)NC(=O)c1cc(-c2cc(F)c(Cl)cc2Cl)n[nH]1
[7]
  IC50: > 100 µM (inactive)
[8]
  IC50: > 100 µM (not active)
[9]
  IC50: 1.08 µM (active)

## CC1=C(C(=O)OC2CCCCCCC2)C(c2cc3c(cc2Br)OCO3)CC(=O)N1 (centres undefined)
[10]
  AC50: 3.59 µM (active)
[11]
  EC50: 18.2 µM (active)

## O=C(OCc1ccccc1)N(CCCCN(CCCNCc1ccccc1)C(=O)OCc1ccccc1)CCCNCc1ccccc1
Beta-galactosidase
  IC50: > 66.6 µM (inactive)
[12]
  AC50: 4.16 µM (active)
[13]
  AC50: 10.3 µM (active)
Paired box protein Pax-8
  AC50: 9.11 µM (active)
[14]
  AC50: 5.36 µM (active)

## N#Cc1ccc(CSc2nnc(-c3ccccn3)n2Cc2ccco2)cc1
Mu-type opioid receptor
  EC50: > 32 µM (inactive)
[15]
  EC50: > 64 µM (inactive)
[16]
  EC50: 19.3 µM (inactive)
[17]
  EC50: 6.79 µM (active)

## C=C(CN(C)C)C(=O)c1ccc(OC2OC(COC(C)=O)C(OC(C)=O)C(OC(C)=O)C2OC(C)=O)cc1 (centres undefined)
[6]
  IC50: 162 µM (active)
[18]
  CC50: 100 µM (active)
[19]
  AC50: 6.87 µM (active)

## CN(C(=O)c1cc(C2CC2)on1)c1ccccc1
[20]
  EC50: > 55.7 µM (inactive)

## O=C(COc1ccc(F)c(Cl)c1)Nc1nnc(-c2ccc3c(c2)CCCC3)o1
[21]
  EC50: 2.4 µM (active)

## Oc1nc(SCc2ccc(Cl)cc2)nc2c1CCC2
Neutrophil collagenase
  IC50: > 39.8 µM (active)
